{"source": "paper PMC12296474", "about": "“Nano-Amounts of Glucagon Premixed With Fast-Acting Insulin Lispro: Effect on Insulin Absorption in Pigs” (Current Therapeutic Research, Clinical and Experimental, 2025)", "origin": "cited, not measured here", "tested_on": "subcutaneous blood flow", "conditions": "healthy subjects", "protocol": "We focused our proof-of-concept experiments on adding nanogram doses of glucagon to Lyumjev^Ⓡ, the most fast-acting insulin formulation available on the market. As previously discussed, we believe glucagon may increase insulin absorption through significant but very localized subcutaneous vasodilation. Therefore, it is noteworthy that when glucagon was added to Lyumjev^Ⓡ, an insulin formulation that already contains 10 ng of the vasodilator treprostinil per unit of insulin, we observed even faster insulin absorption. This effect was not observed in experiments with glucagon added to Humalog^Ⓡ. ...", "data": [{"substance": "glucagon", "values": [{"measurement": "Enhancement of subcutaneous blood flow", "value": "4% to 500"}]}]}
